Assays:
Assay type in all cases: biochemical
JAK1 = molecular target: T1, JAK1 (Homo sapiens, UniProt P23458); assay: JAK1 kinase assay (HTRF, inhibition of phosphorylation of a synthetic peptide); settings: catalytic domain aa 850-1154, GST-tag; 7 μM ATP (Km); read-out: JAK1 kinase inhibitory activity (EC50)
T1 construct: JAK1 (aa 850-1154) and TYK2 (aa 871-1187) are expressed with an N-terminally fused GST-tag; GST (N); purchased Carna Biosciences, Inc; host or cells: baculovirus expression system
Description: (§1) JAK1, JAK2, JAK3 and TYK2 Kinase Assays:
(§2) Human baculovirus-expressed JAK1, 2, 3 and TYK2 were purchased from Carna Biosciences, Inc. All four purified enzymes contain only the catalytic domain. JAK1 (aa 850-1154) and TYK2 (aa 871-1187) are expressed with an N-terminally fused GST-tag, and JAK2 and JAK3 with an N-terminally fused His-tag. Inhibition of phosphorylation of a synthetic peptide was measured in an HTRF-based assay using the TK substrate-Biotin from the CisbioHTRFKinEASE TK kit. First, 2 μl of TK solution (TK substrate-biotin in kinase buffer [1× enzymatic buffer from HTRFKinEASE TK kit, 1 mM DTT]) is added to a plate containing 1 μl prediluted compound (final assay concentration DMSO: 0.75%). Then, 5 μl kinase-ATP mix (prepared in kinase buffer) is added to the wells and the plates are incubated at RT for 20-30 min. For all four kinases a concentration of ATP that corresponded to the Km for ATP was used. The final concentrations of buffers, substrate, kinase and ATP were: JAK1: 50 mMHepes buffer pH 7.0, 0.01% BSA, 10 mM MgCl2, 1 mM DTT, 7 μM ATP, 50 nMSEB, 1 μM TK Substrate-Biotin and 5 ng JAK1; JAK2: 50 mM Hepes buffer pH 7.0, 0.01% BSA, 5 mM MgCl2, 1 mM DTT, 4 μM ATP, 1 μM TK Substrate-Biotin and 0.1 ng JAK2; JAK3: 50 mMHepes buffer pH 7.0, 0.01% BSA, 5 mM MgCl2, 1 mM DTT, 2 μM ATP, 1 μM TK Substrate-Biotin and 0.3 ng JAK3; TYK2: 50 mMHepes buffer pH 7.0, 0.01% BSA, 5 mM MgCl2, 1 mM DTT, 13 μM ATP, 50 nMSEB, 1 μM TK Substrate-Biotin and 0.8 ng TYK2. Thereafter, the kinase reaction is stopped by adding 4 μl detection mix (final concentrations: 50 mM Hepes buffer pH 7.0, 0.01% BSA, 0.8 M KF, 20 mM EDTA, 42 nM Streptavidin-XL665 and 1:400 STKAbCryptate) and the plates are incubated overnight in the dark. The HTRF signal is read using an Envision plate reader.

JAK2 = molecular target: T2, JAK2 (Homo sapiens, UniProt O60674); assay: JAK2 kinase assay (HTRF, inhibition of phosphorylation of a synthetic peptide); settings: catalytic domain, His-tag; 4 μM ATP (Km); read-out: JAK2 kinase inhibitory activity (EC50)
T2 construct: All four purified enzymes contain only the catalytic domain; His (N); purchased Carna Biosciences, Inc; host or cells: baculovirus expression system
Description: as §1, §2

JAK3 = molecular target: T3, JAK3 (Homo sapiens, UniProt P52333); assay: JAK3 kinase assay (HTRF, inhibition of phosphorylation of a synthetic peptide); settings: catalytic domain, His-tag; 2 μM ATP (Km); read-out: JAK3 kinase inhibitory activity (EC50)
T3 construct: All four purified enzymes contain only the catalytic domain; His (N); purchased Carna Biosciences, Inc; host or cells: baculovirus expression system
Description: as §1, §2

T3 sequence (P52333 822-1111 limits assumed): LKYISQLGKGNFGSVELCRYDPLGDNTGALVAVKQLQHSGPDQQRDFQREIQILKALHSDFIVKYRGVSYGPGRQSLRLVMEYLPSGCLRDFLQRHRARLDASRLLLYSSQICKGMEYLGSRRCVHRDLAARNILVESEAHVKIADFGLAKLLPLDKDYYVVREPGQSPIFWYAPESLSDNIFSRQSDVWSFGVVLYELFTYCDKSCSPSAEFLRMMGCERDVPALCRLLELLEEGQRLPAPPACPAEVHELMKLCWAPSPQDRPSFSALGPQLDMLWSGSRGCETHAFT
T1 sequence (P23458 850-1154): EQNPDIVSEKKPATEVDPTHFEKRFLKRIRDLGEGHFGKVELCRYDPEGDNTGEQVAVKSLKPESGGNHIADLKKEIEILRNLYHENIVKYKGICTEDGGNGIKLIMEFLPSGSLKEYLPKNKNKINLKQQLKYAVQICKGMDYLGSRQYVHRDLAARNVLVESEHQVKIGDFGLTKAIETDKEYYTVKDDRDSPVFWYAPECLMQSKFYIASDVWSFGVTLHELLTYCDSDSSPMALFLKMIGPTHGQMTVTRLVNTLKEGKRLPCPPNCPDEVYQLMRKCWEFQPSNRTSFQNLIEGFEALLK
T2 sequence (O60674 849-1124 limits assumed): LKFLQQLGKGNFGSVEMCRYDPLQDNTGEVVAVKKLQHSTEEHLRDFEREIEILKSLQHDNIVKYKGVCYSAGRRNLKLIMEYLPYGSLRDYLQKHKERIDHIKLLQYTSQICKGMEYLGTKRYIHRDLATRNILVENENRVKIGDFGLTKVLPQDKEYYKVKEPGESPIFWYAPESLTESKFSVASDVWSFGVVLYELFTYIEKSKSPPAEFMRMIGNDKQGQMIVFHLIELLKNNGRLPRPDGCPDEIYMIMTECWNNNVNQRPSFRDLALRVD

Row | Compound | EC50 (JAK1) [µM] | EC50 (JAK2) [µM] | EC50 (JAK3) [µM]
1 | Cc1ncccc1C(=O)N1CCCN(c2ncnc3[nH]ccc23)CC12CC2 [Example 136, (2-methyl-3-pyridyl)-[5-(7H-pyrrolo[2,3-d]pyrimidin-4-yl)-5,9-diazaspiro[2.6]nonan-9-yl]methanone] | > 1 | 0.1 to 1 | > 1
2 | N#CCCN(CCC#N)C(=O)N1CCN(c2ncnc3[nH]ccc23)CC2(CC2)C1 [Example 225, N,N-bis(2-cyanoethyl)-5-(7H-pyrrolo[2,3-d]pyrimidin-4-yl)-5,8-diazaspiro[2.6]nonane-8-carboxamide] | > 1 | 0.1 to 1 | 0.1 to 1
3 | O=C(c1ccncc1)N1CCN(c2ncnc3[nH]ccc23)CC2(CC2)C1 [Example 129, 4-pyridyl-[5-(7H-pyrrolo[2,3-d]pyrimidin-4-yl)-5,8-diazaspiro[2.6]nonan-8-yl]methanone] | 0.1 to 1 | 0.1 to 1 | > 1
4 | O=C(c1cnon1)N1CCCN(c2ncnc3[nH]ccc23)CC12CC2 [Example 121, 1,2,5-oxadiazol-3-yl-[5-(7H-pyrrolo[2,3-d]pyrimidin-4-yl)-5,9-diazaspiro[2.6]nonan-9-yl]methanone] | 0.1 to 1 | 0.1 to 1 | < 0.1
5 | O=C(c1ccncn1)N1CCN(c2ncnc3[nH]ccc23)CC2(CC2)C1 [Example 165, pyrimidin-4-yl-[5-(7H-pyrrolo[2,3-d]pyrimidin-4-yl)-5,8-diazaspiro[2.6]nonan-8-yl]methanone] | > 1 | 0.1 to 1 | > 1
6 | Cc1cc(C(=O)N2CCCN(c3ncnc4[nH]ccc34)CC23CC3)sn1 [Example 234, (3-methylisothiazol-5-yl)-[5-(7H-pyrrolo[2,3-d]pyrimidin-4-yl)-5,9-diazaspiro[2.6]nonan-9-yl]methanone] | > 1 | 0.1 to 1 | > 1
7 | O=C(c1cncs1)N1CCCN(c2ncnc3[nH]ccc23)CC12CC2 [Example 240, [5-(7H-pyrrolo[2,3-d]pyrimidin-4-yl)-5,9-diazaspiro[2.6]nonan-9-yl]-thiazol-5-yl-methanone] | 0.1 to 1 | 0.1 to 1 | 0.1 to 1
8 | O=C(c1cncs1)N1CCN(c2ncnc3[nH]ccc23)CC2(CC2)C1 [Example 239, [5-(7H-pyrrolo[2,3-d]pyrimidin-4-yl)-5,8-diazaspiro[2.6]nonan-8-yl]-thiazol-5-yl-methanone] | 0.1 to 1 | 0.1 to 1 | 0.1 to 1
9 | O=C(Cc1ccccc1)N1CCN(c2ncnc3[nH]ccc23)CC2(CC2)C1 [Example 259, 2-phenyl-1-[5-(7H-pyrrolo[2,3-d]pyrimidin-4-yl)-5,8-diazaspiro[2.6]nonan-8-yl]ethanone] | 0.1 to 1 | < 0.1 | 0.1 to 1
10 | Cc1cncc(C(=O)N2CCCN(c3ncnc4[nH]ccc34)CC23CC3)n1 [Example 198, (6-methylpyrazin-2-yl)-[5-(7H-pyrrolo[2,3-d]pyrimidin-4-yl)-5,9-diazaspiro[2.6]nonan-9-yl]methanone] | 0.1 to 1 | 0.1 to 1 | > 1
11 | Cc1cc(C(=O)N2CCN(c3ncnc4[nH]ccc34)CC3(CC3)C2)sn1 [Example 233, (3-methylisothiazol-5-yl)-[5-(7H-pyrrolo[2,3-d]pyrimidin-4-yl)-5,8-diazaspiro[2.6]nonan-8-yl]methanone] | 0.1 to 1 | 0.1 to 1 | > 1

Next, values leading:

Row | EC50 (JAK1) [µM] | EC50 (JAK2) [µM] | EC50 (JAK3) [µM] | Compound
12 | 0.1 to 1 | < 0.1 | 0.1 to 1 | N#CCN(CC#N)C(=O)N1CCN(c2ncnc3[nH]ccc23)CC2(CC2)C1 [Example 219, N,N-bis(cyanomethyl)-5-(7H-pyrrolo[2,3-d]pyrimidin-4-yl)-5,8-diazaspiro[2.6]nonane-8-carboxamide]
13 | 0.1 to 1 | 0.1 to 1 | 0.1 to 1 | O=C(c1c[nH]cn1)N1CCCN(c2ncnc3[nH]ccc23)CC12CC2 [Example 134, 1H-imidazol-4-yl-[5-(7H-pyrrolo[2,3-d]pyrimidin-4-yl)-5,9-diazaspiro[2.6]nonan-9-yl]methanone]
14 | < 0.1 | < 0.1 | 0.1 to 1 | N#CCc1ccc(CC(=O)N2CCN(c3ncnc4[nH]ccc34)CC3(CC3)C2)cc1 [Example 266, 2-[4-[2-oxo-2-[5-(7H-pyrrolo[2,3-d]pyrimidin-4-yl)-5,8-diazaspiro[2.6]nonan-8-yl]ethyl]phenyl]acetonitrile]
15 | 0.1 to 1 | < 0.1 | 0.1 to 1 | O=C(c1ccccc1F)N1CCCN(c2ncnc3[nH]ccc23)CC12CC2 [Example 112, (2-fluorophenyl)-[5-(7H-pyrrolo[2,3-d]pyrimidin-4-yl)-5,9-diazaspiro[2.6]nonan-9-yl]methanone]
16 | 0.1 to 1 | 0.1 to 1 | > 1 | Cc1nnsc1C(=O)N1CCN(c2ncnc3[nH]ccc23)CC2(CC2)C1 [Example 146, (4-methylthiadiazol-5-yl)-[5-(7H-pyrrolo[2,3-d]pyrimidin-4-yl)-5,8-diazaspiro[2.6]nonan-8-yl]methanone]
17 | < 0.1 | < 0.1 | < 0.1 | O=C(CN1C(=O)CSC1=O)N1CCN(c2ncnc3[nH]ccc23)CC2(CC2)C1 [Example 79, 3-[2-oxo-2-[5-(7H-pyrrolo[2,3-d]pyrimidin-4-yl)-5,8-diazaspiro[2.6]nonan-8-yl]ethyl]thiazolidine-2,4-dione]
18 | 0.1 to 1 | 0.1 to 1 | > 1 | Cn1cncc1C(=O)N1CCN(c2ncnc3[nH]ccc23)CC2(CC2)C1 [Example 144, (3-methylimidazol-4-yl)-[5-(7H-pyrrolo[2,3-d]pyrimidin-4-yl)-5,8-diazaspiro[2.6]nonan-8-yl]methanone]
19 | 0.1 to 1 | < 0.1 | 0.1 to 1 | CN(CC#N)C(=O)N1CCN(c2ncnc3[nH]ccc23)CC2(CC2)C1 [Example 218, N-(cyanomethyl)-N-methyl-5-(7H-pyrrolo[2,3-d]pyrimidin-4-yl)-5,8-diazaspiro[2.6]nonane-8-carboxamide]
20 | 0.1 to 1 | 0.1 to 1 | 0.1 to 1 | Cc1ncoc1C(=O)N1CCCN(c2ncnc3[nH]ccc23)CC12CC2 [Example 192, (4-methyloxazol-5-yl)-[5-(7H-pyrrolo[2,3-d]pyrimidin-4-yl)-5,9-diazaspiro[2.6]nonan-9-yl]methanone]
21 | 0.1 to 1 | < 0.1 | 0.1 to 1 | O=C(c1cscn1)N1CCCN(c2ncnc3[nH]ccc23)CC12CC2 [Example 227, [5-(7H-pyrrolo[2,3-d]pyrimidin-4-yl)-5,9-diazaspiro[2.6]nonan-9-yl]-thiazol-4-yl-methanone]
22 | 0.1 to 1 | < 0.1 | 0.1 to 1 | O=C(Cc1ccc(Cl)cc1Cl)N1CCN(c2ncnc3[nH]ccc23)CC2(CC2)C1 [Example 270, 2-(2,4-dichlorophenyl)-1-[5-(7H-pyrrolo[2,3-d]pyrimidin-4-yl)-5,8-diazaspiro[2.6]nonan-8-yl]ethanone]
23 | 0.1 to 1 | 0.1 to 1 | 0.1 to 1 | Cc1cnc(C(=O)N2CCN(c3ncnc4[nH]ccc34)CC3(CC3)C2)s1 [Example 241, (5-methylthiazol-2-yl)-[5-(7H-pyrrolo[2,3-d]pyrimidin-4-yl)-5,8-diazaspiro[2.6]nonan-8-yl]methanone]

From patent US9586961B2, “Homopiperazine derivatives as protein tyrosine kinase inhibitors and pharmaceutical use thereof” (LEO PHARMA A/S, priority 2010, dated 2017)
